Source: the supplement of paper PMC11061612

What was measured:
Experiment in all cases: combination Emax (second highest fraction inhibited in the dose matrix, 72 h); higher = more inhibition; extreme values may be limits of the assay
[1] = tested on: Calu-3 (Lung Adenocarcinoma)
How it was run: (§1)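 Cell lines grown in DMEM/F12 or RPMI with 10% FBS were plated in 1536-well plates and held 24 hours at 37°C, 5% CO2 before 72 hours of exposure to two-drug dose matrices, with DMSO typically at 0.2%. CellTiter-Glo 2.0 luminescence gave viability, which was converted to inhibition. Vehicle wells were set to 0 and blank wells to 1. Combination Emax is the second-highest inhibition in the matrix, and Bliss excess is the observed combination effect minus the expected EA + EB − EA·EB, where EA and EB are the single-agent effects.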

[2] = tested on: UM-UC-3 (Bladder Carcinoma)
How it was run: as §1

KELLY (Neuroblastoma) = tested on: KELLY (Neuroblastoma)
How it was run: as §1

[3] = tested on: RO82-W-1 (Thyroid Gland Carcinoma)
How it was run: as §1

NB10 (Neuroblastoma) = tested on: NB10 (Neuroblastoma)
How it was run: as §1

[4] = tested on: CCRF-CEM (T-Lymphoblastic Leukemia)
How it was run: as §1

[5] = tested on: LB831-BLC (Bladder Carcinoma)
How it was run: as §1

[6] = tested on: NCI-H82 (Small Cell Lung Carcinoma)
How it was run: as §1

[7] = tested on: TE-15 (Esophageal Squamous Cell Carcinoma)
How it was run: as §1

[8] = tested on: CAL-148 (Breast Carcinoma)
How it was run: as §1

[9] = tested on: Ramos-2G6-4C10 (Burkitt's Lymphoma)
How it was run: as §1

[10] = tested on: HCC-78 (Lung Adenocarcinoma)
How it was run: as §1

[11] = tested on: ME-1 (Acute Myeloid Leukemia)
How it was run: as §1

[12] = tested on: Hs-578-T (Breast Carcinoma)
How it was run: as §1

[13] = tested on: TE-9 (Esophageal Squamous Cell Carcinoma)
How it was run: as §1

[14] = tested on: HO-1-N-1 (Oral Cavity Carcinoma)
How it was run: as §1

HOS (Osteosarcoma) = tested on: HOS (Osteosarcoma)
How it was run: as §1

[15] = tested on: HT-1376 (Bladder Carcinoma)
How it was run: as §1

[16] = tested on: LS-180 (Colorectal Carcinoma)
How it was run: as §1

T98G (Glioblastoma) = tested on: T98G (Glioblastoma)
How it was run: as §1

SMILES | combination Emax [1] | combination Emax [2] | combination Emax (KELLY (Neuroblastoma)) | combination Emax [3] | combination Emax (NB10 (Neuroblastoma)) | combination Emax [4] | combination Emax [5] | combination Emax [6] | combination Emax [7] | combination Emax [8] | combination Emax [9] | combination Emax [10] | combination Emax [11] | combination Emax [12] | combination Emax [13] | combination Emax [14] | combination Emax (HOS (Osteosarcoma)) | combination Emax [15] | combination Emax [16] | combination Emax (T98G (Glioblastoma))
C=CCn1c(=O)c2cnc(Nc3ccc(N4CCN(C)CC4)cc3)nc2n1-c1cccc(C(C)(C)O)n1 [AZD1775] + CCc1c2c(nc3ccc(O)cc13)-c1cc3c(c(=O)n1C2)COC(=O)[C@]3(O)CC [SN-38] (first compound max 1 µM, partner max 0.3 µM) | 0.786 | 0.954 | 1 | 0.263 | 0.853 | 1 | 0.875 | 0.965 | 0.939 | 0.974 | 1 | 0.954 | 0.597 | 0.855 | 0.496 | 0.978 | 0.849 | 0.342 | 0.806 | 0.95
C=CCn1c(=O)c2cnc(Nc3ccc(N4CCN(C)CC4)cc3)nc2n1-c1cccc(C(C)(C)O)n1 [AZD1775] + Nc1ccn([C@@H]2O[C@H](CO)[C@@H](O)C2(F)F)c(=O)n1 [Gemcitabine] (first compound max 1 µM, partner max 0.3 µM) | 0.636 | 0.918 | 1 | 0.194 | 0.933 | 1 | 0.872 | 0.923 | 0.944 | 0.989 | 1 | 0.851 | 0.526 | 0.724 | 0.502 | 0.993 | 0.596 | 0.428 | 0.754 | 0.781
CN(CCO)CC[C@H](CSc1ccccc1)Nc1ccc(S(=O)(=O)NC(=O)c2ccc(N3CCC([C@@H](O)c4ccccc4-c4ccc(Cl)cc4)CC3)cc2)cc1S(=O)(=O)C(F)(F)F [AZD4320] + CC(=O)O[C@H]1C(=O)[C@@]2(C)[C@H]([C@H](OC(=O)c3ccccc3)[C@]3(O)C[C@H](OC(=O)[C@H](O)[C@@H](NC(=O)c4ccccc4)c4ccccc4)C(C)=C1C3(C)C)[C@]1(OC(C)=O)CO[C@@H]1C[C@@H]2O [Paclitaxel] (first compound max 1 µM, 7x7, partner max 3 µM) | 0.76 | 0.966 | 1 | 0.947 | 0.912 | 1 | 0.965 | 0.941 | 0.992 | 1 | 0.872 | 0.803 | 1 | 1 | 0.931 | 1 | 1 | 0.775 | 0.94 | 0.993
CN(CCO)CC[C@H](CSc1ccccc1)Nc1ccc(S(=O)(=O)NC(=O)c2ccc(N3CCC([C@@H](O)c4ccccc4-c4ccc(Cl)cc4)CC3)cc2)cc1S(=O)(=O)C(F)(F)F [AZD4320] + CS(=O)(=O)CCNCc1ccc(-c2ccc3ncnc(Nc4ccc(OCc5cccc(F)c5)c(Cl)c4)c3c2)o1 [Lapatinib] (first compound max 1 µM, 7x7, partner max 10 µM) | 0.989 | 0.392 | 0.994 | 0.646 | 0.705 | 1 | 0.858 | 0.69 | 0.761 | 0.94 | 0.961 | 0.238 | 1 | 0.99 | 0.931 | 0.97 | 0.348 | 0.508 | 0.505 | 0.741
CN(CCO)CC[C@H](CSc1ccccc1)Nc1ccc(S(=O)(=O)NC(=O)c2ccc(N3CCC([C@@H](O)c4ccccc4-c4ccc(Cl)cc4)CC3)cc2)cc1S(=O)(=O)C(F)(F)F [AZD4320] + Nc1ccn([C@@H]2O[C@H](CO)[C@@H](O)C2(F)F)c(=O)n1 [Gemcitabine] (first compound max 1 µM, 7x7, partner max 0.3 µM) | 0.624 | 0.979 | 0.999 | 0.572 | 0.858 | 1 | 0.881 | 0.807 | 0.994 | 0.974 | 0.554 | 0.852 | 1 | 0.876 | 0.518 | 1 | 0.829 | 0.236 | 0.66 | 0.861
Cc1c2c(nn1C)CSCc1cc(n(C)n1)CSc1cc(c3ccccc3c1)OCCCc1c(C(=O)O)n(C)c3c-2c(Cl)ccc13 [AZD5991] + CC(=O)O[C@H]1C(=O)[C@@]2(C)[C@H]([C@H](OC(=O)c3ccccc3)[C@]3(O)C[C@H](OC(=O)[C@H](O)[C@@H](NC(=O)c4ccccc4)c4ccccc4)C(C)=C1C3(C)C)[C@]1(OC(C)=O)CO[C@@H]1C[C@@H]2O [Paclitaxel] (first compound max 1 µM, 7x7, partner max 3 µM) | 0.346 | 0.745 | 1 | 0.401 | 0.915 | 0.992 | 0.733 | 0.997 | 0.998 | 0.81 | 1 | 0.433 | 0.715 | 0.988 | 0.789 | 1 | 0.964 | 0.0587 | 0.822 | 0.883
Cc1c2c(nn1C)CSCc1cc(n(C)n1)CSc1cc(c3ccccc3c1)OCCCc1c(C(=O)O)n(C)c3c-2c(Cl)ccc13 [AZD5991] + CS(=O)(=O)CCNCc1ccc(-c2ccc3ncnc(Nc4ccc(OCc5cccc(F)c5)c(Cl)c4)c3c2)o1 [Lapatinib] (first compound max 1 µM, 7x7, partner max 10 µM) | 0.895 | 0.169 | 1 | 0.141 | 0.177 | 0.594 | 0.55 | 0.963 | 0.764 | 0.492 | 0.996 | 0.173 | 0.646 | 0.833 | 0.193 | 0.962 | 0.303 | 0.33 | 0.482 | 0.412
Cc1c2c(nn1C)CSCc1cc(n(C)n1)CSc1cc(c3ccccc3c1)OCCCc1c(C(=O)O)n(C)c3c-2c(Cl)ccc13 [AZD5991] + Nc1ccn([C@@H]2O[C@H](CO)[C@@H](O)C2(F)F)c(=O)n1 [Gemcitabine] (first compound max 1 µM, 7x7, partner max 0.3 µM) | 0.534 | 0.832 | 1 | 0.0885 | 0.778 | 0.987 | 0.677 | 0.972 | 0.931 | 0.929 | 0.994 | 0.787 | 0.676 | 0.663 | 0.343 | 0.994 | 0.823 | 0.215 | 0.779 | 0.5
C[C@@H]1COCCN1c1cc(C2([S@](C)(=N)=O)CC2)nc(-c2ccnc3[nH]ccc23)n1 [AZD6738] + C1CC(C1)(C(=O)[O-])C(=O)[O-].N.N.[Pt+2] [Carboplatin] (first compound max 10 µM, 7x7, partner max 10 µM) | 0.555 | 0.398 | 0.944 | 0.151 | 0.689 | 0.977 | 0.39 | 0.823 | 0.857 | 0.818 | 0.88 | 0.662 | 0.348 | 0.69 | 0.264 | 0.779 | 0.668 | 0.454 | 0.7 | 0.886
C[C@@H]1COCCN1c1cc(C2([S@](C)(=N)=O)CC2)nc(-c2ccnc3[nH]ccc23)n1 [AZD6738] + Nc1ccn([C@@H]2O[C@H](CO)[C@@H](O)C2(F)F)c(=O)n1 [Gemcitabine] (first compound max 10 µM, 7x7, partner max 0.3 µM) | 0.694 | 0.966 | 1 | 0.223 | – | 1 | 0.9 | 0.987 | 0.939 | 1 | – | 0.901 | 0.774 | 0.772 | 0.538 | 1 | 0.87 | 0.491 | 0.819 | 0.858
Cc1cc2ncnn2cc1Nc1ncc2c(n1)n(C1CCOCC1)c(=O)n2C [AZD7648] + COc1cc([C@@H]2c3cc4c(cc3[C@@H](O[C@@H]3O[C@@H]5CO[C@@H](C)O[C@H]5[C@H](O)[C@H]3O)[C@H]3COC(=O)[C@H]23)OCO4)cc(OC)c1O [Etoposide] (first compound max 10 µM, 7x7, partner max 10 µM) | 0.744 | 0.875 | 0.793 | 0.288 | 0.872 | 1 | 0.836 | 0.848 | 0.835 | 1 | 0.963 | 0.774 | 0.272 | 0.662 | 0.287 | 0.987 | 0.879 | 0.515 | 0.729 | 0.741
C[C@@H](Nc1cc(F)cc(F)c1)c1cc(C(=O)N(C)C)cc2c(=O)cc(N3CCOCC3)oc12 [AZD8186] + C1CN(CCC1(C(=O)N[C@@H](CCO)C2=CC=C(C=C2)Cl)N)C3=NC=NC4=C3C=CN4 [AZD5363] (first compound max 10 µM, 7x7, partner max 10 µM) | 0.318 | 0.4 | 0.115 | 0.201 | 0.228 | 0.411 | 0.442 | 0.358 | 0.496 | 0.989 | 0.26 | 0.34 | 0.103 | 0.7 | 0.198 | 0.54 | 0.336 | 0.116 | 0.419 | 0.562
